According to article PMC8246325, “Toxicity of Jegosaponins A and B from Styrax japonica Siebold et al. Zuccarini in Prostate Cancer Cells and Zebrafish Embryos Resulting from Increased Membrane Permeability” (International Journal of Molecular Sciences, 2021):

Tests used:
[1] = test system: DU145; assay: Cell viability assay (CellTiter-Glo) in DU145 cells; type: cell-based, human; details: 1 µM, 48 h (Figure S1)
Method: (§1) Human prostate cancer PC-3, […], and LNCaP cells were obtained from Riken Bioresource Center (Tokyo, Japan) and cultured in Dulbecco’s modified Eagle medium-low glucose (DMEM; Sigma-Aldrich, St. Louis, MO, USA), supplemented with 10% fetal bovine serum (FBS; Biowest SAS, Nuaille, France) and 1% penicillin-streptomycin (Fujifilm Wako Pure Chemicals) at 37 °C in a humidified 5% CO2 atmosphere. For screening, the cells were seeded (3 × 10^3 cells/well) in a 96-well plate and cultured for 24 h in DMEM supplemented with 1% FBS. The tested compounds were then administered to the cells. Forty-eight hours after administration, cell viability was measured using the CellTiter-Glo luminescent cell viability assay (Promega, Madison WI, USA) according to the manufacturer’s protocol. Luminescence signals were measured using a Victor2 microplate reader (PerkinElmer, Boston, MA, USA). For the negative control (0 μM jegosaponin A and B), 0.1% dimethyl sulfoxide (vehicle) was used. Cell viability was calculated as the ratio of the negative controls. The assay was performed in triplicate.

[2] = test system: 48 hpf zebrafish; assay: DRAQ7 membrane permeability assay in zebrafish; type: in vivo, zebrafish (Danio rerio); details: for Lethality to zebrafish embryos at high concentration: 60 min; for DRAQ7 signals in zebrafish (cell membrane permeability): 30 min of exposure, mainly tail regions
Method: (§2) PC-3 cells were seeded (4 × 10^3 cells/well) in ibidi 8-well μ-Slide (Ibidi, Munich, Germany) in DMEM supplemented with 10% FBS and cultured for 24 h. Then, DRAQ7 (DRAQ7 DROP & GO; Biostatus, Shepshed, UK) and the tested compounds were added to the cells. After an appropriate time, the cells were imaged using a BZ-X710 fluorescence microscope (Keyence, Tokyo, Japan). For zebrafish embryos, 48 hpf embryos were treated with DRAQ7 and the tested compounds and imaged using a BZ-X710 fluorescent microscope.

[3] = test system: caspase-3 and caspase-7; assay: Caspase 3/7 assay (Caspase-Glo 3/7) in PC-3 cells; type: cell-based, human; details: for Caspase 3/7 activities in PC-3 cells: 3 or 6 h; for Induction of caspase-3 and caspase-7 activities: PC-3 cells, sub-IC50 concentrations
Method: PC-3 cells were seeded (3 × 10^3 cells/well) in a 96-well plate in DMEM containing 10% FBS for 24 h and treated with the test compounds. Caspase-Glo 3/7 assay (Promega) was performed according to the manufacturer’s instructions. Luminescence signals were measured using a Victor2 microplate reader (PerkinElmer).

[4] = test system: sheep red blood cells; assay: Haemolysis assay; type: cell-based; details: Ovis aries, Erythrocyte; RBC, 1 h (Table 1); read-out: RBC Hemolysis HD50 (1 h)
Method: A haemolysis assay was performed as previously reported. Five millilitres of sheep defibrinated blood (Nippon Bio-Supp. Centre, Tokyo, Japan) was diluted in 45 mL of Dulbecco’s phosphate-buffered saline (DPBS) to obtain a total volume of 50 mL. The cell suspension was centrifuged at 500× g for 5 min, and the supernatant was discarded. This procedure was repeated three times, and DPBS was added to the precipitate, and the red blood cell (RBC) count was adjusted to ~5×10^8 cells/mL. The RBC suspension (500 µL) was placed into a 1.5 mL storage tube, and the reagent was administered and incubated for 30 min on ice. […] The cell suspension was then centrifuged at 500× g for 5 min. The haemoglobin concentration in the supernatant was measured by measuring the UV absorbance at 540 nm.

[5] = test system: PC-3 prostate cancer cells; assay: Cell viability assay (CellTiter-Glo) in PC-3 cells; type: cell-based, human; details: for Suppression of viability of PC-3 cells: 1 µM, 48 h (Figure S1); for CC50: Homo sapiens, PC-3 cells, 48 h treatment, read-out: PC-3 cell viability, lethal concentration 50 (LC50)
Method: as §1

[6] = test system: PC-3 cells; assay: DRAQ7 membrane permeability assay in PC-3 cells; type: cell-based; details: Homo sapiens; for IC50: 1 h (Table 1); for EC50: DRAQ7 membrane-impermeable dye, read-out: EC50 of DRAQ7 nucleus staining (DRAQ7 positive cells)
Method: as §2

[7] = test system: LNCaP; assay: Cell viability assay (CellTiter-Glo) in LNCaP cells; type: cell-based, human; details: 1 µM, 48 h (Figure S1)
Method: as §1

[8] = Zebrafish embryo acute toxicity test (ZFET); parameters: species or system zebrafish (Danio rerio); details: AB, in vivo, other: embryos exposed in 6-well plates; for LC50 at 120 h: embryos exposed from 5 hpf to 120 hpf; for LC50 at 24 h: embryos exposed from 5 hpf, 24 h after administration (to 24 hpf)
Method: Zebrafish AB strain (Zebrafish International Resource Center, Eugene, OR, USA) was maintained in our facility according to standard operational guidelines. All animal procedures were performed by the Ethics Committee of Mie University, according to the Japanese Animal Welfare Regulation ‘Act on Welfare and Management of Animals’ (Ministry of Environment of Japan), and complied with international guidelines.
ZFETs were performed as previously reported. In brief, blastula stage embryos (approximately 5 h post fertilisation (hpf)) were transferred into 6-well plates and exposed to jegosaponin A or B at 28 °C until 120 hpf. Each group contained nine fish in three triplicates. The number of surviving embryos was counted every 24 h.

C/C=C(\C)C(=O)O[C@H]1[C@H](OC(C)=O)[C@@]2(CO)C(CC1(C)C)C1=CCC3[C@@]4(C)CC[C@H](O[C@@H]5O[C@H](C(=O)O)[C@@H](O[C@@H]6O[C@H](CO)[C@H](O)[C@H](O)[C@H]6O[C@@H]6O[C@@H](C)[C@H](O)[C@@H](O)[C@H]6O)[C@H](O)[C@H]5O[C@@H]5O[C@H](CO)[C@@H](O)[C@H](O)[C@H]5O)C(C)(C)C4CC[C@@]3(C)[C@]1(C)C[C@H]2O (stereo partly drawn) [Jegosaponin A, jegosaponin A]
Suppression of viability of DU145 cells [1]: suppress viability
Suppression of viability of DU145 cells ([1]; listed as jegosaponin A): suppressed the viability
Lethality to zebrafish embryos at high concentration ([2]; 6 μM): killed all embryos
DRAQ7 signals in zebrafish (cell membrane permeability) [2]: apparently increased DRAQ7 signals
Caspase 3/7 activities in PC-3 cells ([3]; 1.5 µM): do not affect caspase 3/7 activities
Induction of caspase-3 and caspase-7 activities [3]: no apparent induction of their activities
EC50 [4]: 2100 nM
Suppression of viability of PC-3 cells [5]: suppress viability
CC50 [5]: 700 nM
IC50 [6]: 3400 nM
EC50 [6]: 3400 ± 600 nM
Suppression of viability of LNCaP cells [7]: suppress viability
Suppression of viability of LNCaP cells ([7]; listed as jegosaponin A): suppressed the viability
LC50 at 120 h [8]: 500 nM
LC50 at 24 h [8]: 700 nM

C/C=C(\C)C(=O)O[C@H]1[C@H](O)[C@@]2(COC(C)=O)C(CC1(C)C)C1=CCC3[C@@]4(C)CC[C@H](O[C@@H]5O[C@H](C(=O)O)[C@@H](O[C@@H]6O[C@H](CO)[C@H](O)[C@H](O)[C@H]6O[C@@H]6O[C@@H](C)[C@H](O)[C@@H](O)[C@H]6O)[C@H](O)[C@H]5O[C@@H]5O[C@H](CO)[C@@H](O)[C@H](O)[C@H]5O)C(C)(C)C4CC[C@@]3(C)[C@]1(C)C[C@H]2O (stereo partly drawn) [Jegosaponin B, jegosaponin B]
Suppression of viability of DU145 cells ([1]; listed as B): suppress viability
Suppression of viability of DU145 cells ([1]; listed as jegosaponin B): suppressed the viability
Lethality to zebrafish embryos at high concentration ([2]; 12 μM): killed all embryos
DRAQ7 signals in zebrafish (cell membrane permeability) [2]: apparently increased DRAQ7 signals
Caspase 3/7 activities in PC-3 cells ([3]; 0.5 µM): do not affect caspase 3/7 activities
Induction of caspase-3 and caspase-7 activities [3]: no apparent induction of their activities
EC50 [4]: 20200 nM
Suppression of viability of PC-3 cells [5]: suppress viability
CC50 [5]: 1600 nM
IC50 [6]: 6000 nM
EC50 [6]: 6000 ± 1200 nM
Suppression of viability of LNCaP cells ([7]; listed as B): suppress viability
Suppression of viability of LNCaP cells ([7]; listed as jegosaponin B): suppressed the viability
LC50 at 120 h [8]: 1300 nM
LC50 at 24 h [8]: 1400 nM
